Converted amounts (≈) assume the structure as drawn. “And” between values parts separate entries of the source, which are not always exact repeats. Equal entries are not always repeated. The source made the active and inactive calls. The calls are words filed in the database; no cut-off is given here.
Experiments:
Escherichia coli = test: Antimicrobial activity against Escherichia coli NCIM 2574 assessed as zone of inhibition by well diffusion method; type: functional
Proteus mirabilis [1] = test: Antimicrobial activity against Proteus mirabilis NCIM 2388 assessed as zone of inhibition by well diffusion method; type: functional
Bacillus subtilis = test: Antimicrobial activity against Bacillus subtilis NCIM 2063 assessed as zone of inhibition by well diffusion method; type: functional
Staphylococcus aureus [2] = test: Antimicrobial activity against Staphylococcus aureus NCIM 2178 assessed as zone of inhibition by well diffusion method; type: functional
Candida albicans = test: Antifungal activity against Candida albicans NCIM 3100 assessed as zone of inhibition by well diffusion method; type: functional
Aspergillus niger [3] = test: Antifungal activity against Aspergillus niger ATCC 504 assessed as zone of inhibition by well diffusion method; type: functional
Proteus mirabilis [4] = test: Antimicrobial activity against Proteus mirabilis NCIM 2388 assessed as absence of growth by well diffusion method; type: functional
Staphylococcus aureus [5] = test: Antimicrobial activity against Staphylococcus aureus NCIM 2178 assessed as absence of growth by well diffusion method; type: functional
Aspergillus niger [6] = test: Antifungal activity against Aspergillus niger ATCC 504 assessed as absence of growth by well diffusion method; type: functional
[7] = test system: Mycobacterium tuberculosis; test: Antitubercular activity Mycobacterium tuberculosis H37Rv strain ATCC No- 27294 assessed as prevention of color change from blue to pink using Almar Blue measured after 24 hrs by MABA assay; type: functional
[8] = Cytotoxicity against mouse 3T3-L1 cells assessed as cell viability at 12.5 ug/ml measured after 24 hrs by MTT assay relative to control; type: toxicity, cell-based; settings: at 12.5 µg/mL, read-out: Activity
[9] = Cytotoxicity against mouse 3T3-L1 cells assessed as cell viability at 25 ug/ml measured after 24 hrs by MTT assay relative to control; type: toxicity, cell-based; settings: at 25 µg/mL, read-out: Activity

SMILES	inhibition zone (IZ) (Escherichia coli)	inhibition zone (IZ) (Proteus mirabilis [1])	inhibition zone (IZ) (Bacillus subtilis)	inhibition zone (IZ) (Staphylococcus aureus [2])	inhibition zone (IZ) (Candida albicans)	inhibition zone (IZ) (Aspergillus niger [3])	MIC (Proteus mirabilis [4])	MIC (Staphylococcus aureus [5])	MIC (Aspergillus niger [6])	MIC [7]	viability at 24 h, 12.5 ug/ml [8]	viability at 24 h, 25 ug/ml [9]
Cc1ccc(-c2nn(-c3ccccc3)cc2-c2csc(Nc3ccccc3)n2)cc1	13 mm	15 mm	11.4 mm	15 mm	9.6 mm	20 mm	125 µg/mL (≈ 306 µM)	125 µg/mL (≈ 306 µM)	15.6 µg/mL and 38.3 µM	12.5 µg/mL and 30.6 µM	64.6%	57.3%
Fc1ccc(-n2cc(-c3csc(Nc4ccccc4)n3)c(-c3ccccc3)n2)cc1	inactive	13.8 mm	12 mm	15 mm	10 mm	18.6 mm		125 µg/mL (≈ 303 µM)	15.6 µg/mL and 37.9 µM	12.5 µg/mL and 30.3 µM	99.5%	94.8%
Cc1ccc(-c2nn(-c3ccccc3)cc2-c2csc(Nc3ccc(Cl)cc3)n2)cc1	inactive	13.8 mm	13.8 mm	16 mm	10 mm	20 mm		62.5 µg/mL and 141 µM	15.6 µg/mL and 35.3 µM	0.8 µg/mL and 1.8 µM	67.5%	61.8%
Fc1ccc(-n2cc(-c3csc(Nc4ccc(Cl)cc4)n3)c(-c3ccc(Cl)cc3)n2)cc1	11 mm	13.6 mm	12.6 mm	15 mm	10.4 mm	19 mm		125 µg/mL (≈ 260 µM)	15.6 µg/mL and 32.5 µM	1.6 µg/mL and 3.33 µM	74.4%	56.7%
Fc1ccc(-n2cc(-c3csc(Nc4ccc(Cl)cc4)n3)c(-c3ccccc3)n2)cc1	13 mm	15 mm	13 mm	16 mm	10.8 mm	18.8 mm	125 µg/mL (≈ 280 µM)	62.5 µg/mL and 140 µM	15.6 µg/mL and 35 µM	3.12 µg/mL and 7.01 µM	102%	46%
CC[C@@H](CO)NCCN[C@@H](CC)CO [ETHAMBUTOL]										1.6 µg/mL and 7.83 µM		
NNC(=O)c1ccncc1 [ISONIAZID]										1.6 µg/mL and 11.7 µM		
Cc1ccc(Nc2nc(-c3cn(-c4ccccc4)nc3-c3ccccc3)cs2)cc1	inactive	15 mm	12 mm	15 mm	10.4 mm	18.4 mm	125 µg/mL (≈ 306 µM)	125 µg/mL (≈ 306 µM)	15.6 µg/mL and 38.3 µM	50 µg/mL and 122 µM		
NC(=O)c1cnccn1 [PYRAZINAMIDE]										3.12 µg/mL and 25.4 µM		
Clc1ccc(Nc2nc(-c3cn(-c4ccccc4)nc3-c3ccc(Cl)cc3)cs2)cc1	inactive	14 mm	11.6 mm	14.2 mm	10.4 mm	17.4 mm	125 µg/mL (≈ 270 µM)	125 µg/mL (≈ 270 µM)	31.2 µg/mL and 67.5 µM	1.6 µg/mL and 3.46 µM	118%	99.2%
Cc1ccc(Nc2nc(-c3cn(-c4ccccc4)nc3-c3ccc(Cl)cc3)cs2)cc1	inactive	14 mm	12 mm	15 mm	10.2 mm	18.2 mm	125 µg/mL (≈ 282 µM)	125 µg/mL (≈ 282 µM)	15.6 µg/mL and 35.3 µM	1.6 µg/mL and 3.61 µM	83.8%	72.9%

From ChEMBL document CHEMBL5620386, “Synthesis, biological screening and in silico studies of new N-phenyl-4-(1,3-diaryl-1H-pyrazol-4-yl)thiazol-2-amine derivatives as potential antifungal and antitubercular agents” (Eur J Med Chem, 2023)
